According to patent US20040152670A1, “Novel aminoindanes” (priority 1999, published 2004):
Like-named read-outs stand apart in the source and are kept apart here.

Key:
[1] = system: Group I metabotropic glutamate receptors (mGluRs); assay: Phosphatidylinositol assay in neonatal rat tissue slices (inositol phosphate accumulation); type: cell-based, Sprague Dawley rat; details: for Group I Agonist: increase in intracellular free inositol phosphate accumulation; for Group I Agonist / Group I Antagonist: Yes/No; for EC50: inhibition of the inositol phosphate accumulation induced by ACPD, read-out: Group I Antagonist EC50; for Group I Antagonist: inhibits the inositol phosphate accumulation induced by ACPD
Experimental: Briefly, cross-chopped slices are prepared from neonatal Sprague Dawley rat tissue (age: p7-p14). The slices are pre-labelled with [3H] myo-inositol. Following pre-labelling, the slices are incubated with the test drugs and standard (known Group I agonists i.e. ACPD) for a period of 45 minutes. The incubation is terminated by the addition of chloroform/methanol/HCl (100:200:2). The resulting mixture is separated into two phases by the addition of chloroform and distilled water. The aqueous fraction is applied to ion exchange columns, and inositol phosphates are eluted using 800 mM Ammonium Formate/100 mM Formic Acid. The eluent is then analyzed using liquid scintillation counting. The amount of inositol phosphate accumulation is expressed as a percentage of that induced by ACPD. Group I metabotropic glutamate receptors (mGluRs) are positively coupled on inositol phosphate metabolism. Agonists at these receptors lead to an increase in intracellular free inositol phosphates, while antagonists inhibit the increase in intracellular free inositol phosphate induced by standard agonists (i.e. ACPD). Cross-chopped slices were prepared from neonatal Sprague Dawley rat tissue (age: p7-p14). The slices were pre-labelled with [^3H] myo-inositol. Following pre-labelling, the slices were incubated with the test compounds and standard (known Group I agonists i.e. ACPD) for a period of 45 minutes. The incubation was terminated by the addition of chloroform/methanol/HCl (100:200:2). The resulting mixture was separated into two phases by the addition of chloroform and distilled water. The aqueous fraction was applied to ion exchange columns, and inositol phosphates were eluted using 800 mM Ammonium Formate/100 mM Formic Acid. The eluent was then analyzed using liquid scintillation counting. The amount of inositol phosphate accumulation was expressed as a percentage of that induced by ACPD. If the drugs cause an increase in intracellular free inositol phosphate accumulation, they are considered to be Group I agonists. […]

[2] = system: Group II/III metabotropic glutamate receptors (mGluRs); assay: Cyclic AMP assay in rat cortical slices (forskolin-induced cyclic AMP accumulation); type: cell-based, Sprague Dawley rat; details: for Group II/III Agonist: inhibits forskolin-induced cyclic AMP accumulation; for Group II/III Agonist / Group II/III Antagonist: Yes/No; for Group II/III Antagonist: inhibits the glutamate-caused decrease in forskolin-induced cyclic AMP accumulation
Experimental: The assay of cyclic AMP formation can be performed as described previously (Tovey el al., Clinica Chimica Acta, 56, 221-234, 1974). The assay can be modelled on the cyclic AMP assay kit available from Amersham, which in turn, is based on the assay created by Tovey el al. Briefly, samples are prepared from Sprague Dawley rat (225-250 g) cortical slices. Slices are incubated with the drug, and then challenged with forskolin to induce cyclic AMP release. Following termination of the reaction by boiling, the slices are homogenized and centrifuged. Samples of supernatant are then incubated for 2-3 hours with a known quantity of [^3H]cAMP and a binding protein. When the incubation is complete, the bound cyclic AMP is separated from the free cyclic AMP by centrifugation with charcoal. The resulting supernatant (containing free cyclic AMP) is then analyzed by liquid scintillation counting. The amount of unbound cyclic AMP can be calculated from a standard curve previously determined with various samples of free cyclic AMP. Group II/III metabotropic glutamate receptors (mGluRs) are negatively coupled to adenylate cyclase, and agonists of these receptors lead to a decrease in intracellular cyclic AMP accumulation. The assay has been modeled on the cyclic AMP assay kit available from Amersham. This kit, in turn, is based on the assay created by Tovey et al. (1974). Briefly, the samples were prepared from Sprague Dawley rat (225-250 g) cortical slices. Slices were incubated with the test compound (drug), and then challenged with forskolin to induce cyclic AMP release. Following termination of the reaction by boiling, the slices were homogenized and centrifuged. Samples of supernatant were then incubated for 2-3 hours with a known quantity of [^3H]cAMP and a binding protein. When the incubation was complete, the bound cyclic AMP was separated from the free cyclic AMP by centrifugation with charcoal. The resulting supernatant (containing free cyclic AMP) was then analyzed by liquid scintillation counting. The amount of unbound cyclic AMP was calculated from a standard curve previously determined with various samples of free cyclic AMP. If the drugs tested inhibit forskolin-induced cyclic AMP accumulation, they are considered to be Group II/III agonists. Conversely, if they inhibit the decrease in forskolin-induced cyclic AMP accumulation caused by glutamate, they are considered to be Group II/III antagonists.

mGluR1α receptor = target: T1, mGluR1α receptor (Rattus norvegicus, UniProt P23385); assay: PI hydrolysis antagonist assay in Chinese hamster ovary cell lines expressing cloned mGluR1α; type: cell-based; details: CHO cells expressing cloned mGluR1α; compound at 5 mM; 10 µM (L)-glutamic acid; FIG. 1
T1 construct: expressed in transfected cells; host or cells: Chinese hamster ovary (CHO) cells
T1 sequence (P23385 19-1199): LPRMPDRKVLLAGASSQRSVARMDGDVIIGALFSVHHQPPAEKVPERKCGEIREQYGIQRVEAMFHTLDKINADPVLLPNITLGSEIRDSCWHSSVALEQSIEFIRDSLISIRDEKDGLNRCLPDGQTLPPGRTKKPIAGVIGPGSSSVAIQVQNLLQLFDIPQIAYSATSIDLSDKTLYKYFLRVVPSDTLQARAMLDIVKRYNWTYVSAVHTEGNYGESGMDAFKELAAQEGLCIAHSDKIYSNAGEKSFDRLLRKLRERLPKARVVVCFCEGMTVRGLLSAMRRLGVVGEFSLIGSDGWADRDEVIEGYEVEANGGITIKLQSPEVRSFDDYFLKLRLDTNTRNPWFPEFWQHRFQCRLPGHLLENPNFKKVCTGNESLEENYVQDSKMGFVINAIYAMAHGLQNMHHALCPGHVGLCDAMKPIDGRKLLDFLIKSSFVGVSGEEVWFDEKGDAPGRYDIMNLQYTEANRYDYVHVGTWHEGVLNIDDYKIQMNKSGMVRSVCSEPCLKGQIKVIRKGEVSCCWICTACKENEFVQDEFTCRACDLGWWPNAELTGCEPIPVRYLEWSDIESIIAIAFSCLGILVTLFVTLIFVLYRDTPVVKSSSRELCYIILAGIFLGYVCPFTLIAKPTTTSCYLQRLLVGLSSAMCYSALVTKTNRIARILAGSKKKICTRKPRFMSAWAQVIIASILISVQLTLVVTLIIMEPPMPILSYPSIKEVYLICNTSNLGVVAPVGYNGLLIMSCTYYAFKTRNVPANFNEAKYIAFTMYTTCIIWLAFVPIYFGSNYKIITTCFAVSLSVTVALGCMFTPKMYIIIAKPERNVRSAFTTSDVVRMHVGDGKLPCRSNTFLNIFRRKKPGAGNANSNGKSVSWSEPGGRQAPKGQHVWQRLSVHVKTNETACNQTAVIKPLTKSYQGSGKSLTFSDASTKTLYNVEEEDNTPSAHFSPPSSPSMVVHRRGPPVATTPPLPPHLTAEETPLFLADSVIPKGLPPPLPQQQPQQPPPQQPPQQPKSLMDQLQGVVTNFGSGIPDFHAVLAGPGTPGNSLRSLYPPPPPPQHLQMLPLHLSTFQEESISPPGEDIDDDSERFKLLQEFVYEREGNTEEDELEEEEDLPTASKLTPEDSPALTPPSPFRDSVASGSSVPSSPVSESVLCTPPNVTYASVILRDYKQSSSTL
Experimental: The Chinese hamster ovary cell lines expressing mGluR1α, mGlu R2 and mGluR4αreceptors have been described previously (Amarori and Nakanishi, Neuron 8, 757-765, 1992; Tanabe et al., Neuron 8, 169-179, 1992, and J. Neurochem. 63, 2038-2047, 1993). They are maintained at 37° C. in a humidified 5% CO2 incubator in Dubecco's Modified Eagle Medium (DMEM) containing a reduced concentration of(S)-glutamine (2 mM) and are supplemented with 1% proline, penicillin (100 U/mL), streptomycin ([…]) and 10% dialyzed fetal calf serum (all GIBCO, Paisley). Two days before assay 1.8×10^6 cells are evenly distributed into the wells of 24 well plates.
Phosphatidylinositol (PI) hydrolysis can be measured as described previously (Hayashi et al., Nature 366, 687-690,1992, and J. Neuroscience 14, 3370-3377, 1994). Briefly, the cells are labeled with [^3H]inositol (2 μCi/mL) 24 h prior to the assay. For agonist assays, the cells are incubated with test compound dissolved in phosphate-buffered saline (PBS)-LiC] for 20 min, and agonist activity is determined from the level of ^3H-labeled mono-, bis- and tris-inositol phosphates generated, as measured following ion-exchange chromatography, compared with the level generated in the absence of the test compound. […] The antagonist activity is then determined as the inhibitory effect of the (S)-Glu mediated response. […]

[3] = inhibition of the glutamate-caused decrease in forskolin-induced cyclic AMP accumulation, read-out: Group II/III Antagonist EC50
[4] = inhibition of forskolin-induced cyclic AMP accumulation, read-out: Group II/III Agonist EC50

SMILES | Group I Agonist [1] | EC50 [1] | Group I Antagonist [1] | Group II/III Agonist [2] | Group II/III Antagonist [2] | antagonist activity: block of the increase in PI hydrolysis by (L)-glutamic acid at the mGluR1α receptor (mGluR1α receptor) | EC50 [2, 3] | EC50 [2, 4]
N[C@]1(C(=O)O)C[C@H](C(=O)O)c2ccccc21 [Compound 4a, Trans-1-aminoaindane-1,3-dicarboxylic acid] | No | 480 nM | Yes | No | No | effectively blocked | – | –
NC(C(=O)O)C1CC(C(=O)O)c2ccccc21 (centres unmarked) [Compound 23, 1-[2-amino]-3-carboxyindaneacetic acid] | No | – | No | No | Yes | – | 610 nM | –
NC(C(=O)O)C1c2ccccc2CC1CC(=O)O (centres unmarked) [Compound 18, 1-[2-amino]-2-indanediacetic acid] | No | 14000 nM | Yes | Yes | Yes | – | 26 nM | 460 nM
N[C@]1(C(=O)O)C[C@@H](CC(=O)O)c2ccccc21 (relative stereo) [Compound 13, Trans-1-amino-1-carboxyindane-3-acetic acid] | – | 1.3 nM | – | – | – | – | – | 990 nM
N[C@]1(C(=O)O)c2ccccc2C[C@H]1CC(=O)O (relative stereo) [Compound 9, Trans-1-amino-1-carboxyindane-2-acetic acid] | – | 1100 nM | – | – | – | – | 34 nM | –
N[C@@]1(C(=O)O)C[C@H](C(=O)O)c2ccccc21 (stereo in doubt) [Compound 4b, Cis-1-aminoindane-1,3-dicarboxylic acid] | – | – | – | – | – | – | – | 2100 nM
